The values that follow come from ChEMBL document CHEMBL3217431, “Synthesis, in silico screening and bioevaluation of dispiro-cycloalkanones as antitubercular and mycobacterial NAD+-dependent DNA ligase inhibitors” (Medchemcomm, 2011).

The test system of the assay is Escherichia coli. Nature of the assay: In vivo antibacterial activity against Escherichia coli GR501 harboring lig251 temperature-sensitive mutant gene transformed with plasmid encoding Mycobacterium tuberculosis NAD+ DNA ligase assessed as growth inhibition after 20 hrs by microdilution assay. Format: functional. Conditions: GR501, 20 h.

≈ marks a conversion by molar mass, not a printed value.

For `O=C1C2(CCCC13CC3c1ccc(F)cc1)CC2c1ccc(F)cc1` (configuration not stated), the MIC was 44.3 µM (≈ 15 µg/mL).
Next, `O=C1C2(CCCC13CC3c1ccc(Br)cc1)CC2c1ccc(Br)cc1` (configuration not stated): 52.1 µM (≈ 24 µg/mL).
